Data reported in patent US20080161366A1, “AMINOALKYL SUBSTITUTED ARYL SULFAMIDE DERIVATIVES AND METHODS OF THEIR USE” (Wyeth, priority 2006, published 2008).
pIC50: −log10 of the molar value. Counter-ions that a name gives are not always drawn.

target: human norepinephrine transporter (hNET) (Homo sapiens, UniProt P23975); assay: hNET uptake, Protocol B: cell based norepinephrine reuptake assay using recombinant hNET (MDCK-Net6 cells); details: NE uptake (Protocol B) IC50 (nM), MDCK-Net6 cells, 3H-NE 16 nM
Sequence (P23975 whole entry): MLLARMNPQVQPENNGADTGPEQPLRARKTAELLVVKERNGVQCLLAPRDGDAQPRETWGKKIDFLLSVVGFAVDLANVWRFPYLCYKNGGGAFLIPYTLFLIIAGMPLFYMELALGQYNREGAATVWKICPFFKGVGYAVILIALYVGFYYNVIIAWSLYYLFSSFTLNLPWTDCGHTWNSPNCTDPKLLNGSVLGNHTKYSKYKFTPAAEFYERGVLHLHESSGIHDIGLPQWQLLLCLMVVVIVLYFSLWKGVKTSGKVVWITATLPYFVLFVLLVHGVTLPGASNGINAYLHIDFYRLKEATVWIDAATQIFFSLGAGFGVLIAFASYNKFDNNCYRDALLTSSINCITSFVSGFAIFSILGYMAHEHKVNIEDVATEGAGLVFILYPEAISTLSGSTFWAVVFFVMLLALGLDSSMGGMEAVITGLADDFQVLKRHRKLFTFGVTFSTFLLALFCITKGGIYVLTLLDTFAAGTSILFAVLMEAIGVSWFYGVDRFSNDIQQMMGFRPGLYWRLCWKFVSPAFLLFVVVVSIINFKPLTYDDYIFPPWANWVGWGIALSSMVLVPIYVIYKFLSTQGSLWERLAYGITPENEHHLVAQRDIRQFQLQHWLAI

IC50 [nM]	Compound
61	CNCCCCCN1c2ccccc2N(c2ccc(F)cc2F)S1(=O)=O [Example 115, 5-[3-(2,4-difluorophenyl)-2,2-dioxido-2,1,3-benzothiadiazol-1(3H)-yl]-N-methylpentan-1-amine hydrochloride]
48	CCNCCCCN1c2ccccc2N(c2c(F)cccc2F)S1(=O)=O [Example 122, 4-[3-(2,6-difluorophenyl)-2,2-dioxido-2,1,3-benzothiadiazol-1(3H)-yl]-N-ethylbutan-1-amine hydrochloride]
259	NCCCN1c2ccccc2N(c2ccc(F)cc2F)S1(=O)=O [Example 72, 3-[3-(2,4-difluorophenyl)-2,2-dioxido-2,1,3-benzothiadiazol-1(3H)-yl]propan-1-amine hydrochloride]
35.7	CNCCCN1c2ccccc2N(c2ccc(C)cc2)S1(=O)=O [Example 8, N-methyl-3-[3-(4-methylphenyl)-2,2-dioxido-2,1,3-benzothiadiazol-1(3H)-yl]propan-1-amine]
440	O=S1(=O)N(CCCCNC2CCCCC2)c2ccccc2N1c1c(F)cccc1F [Example 125, N-{4-[3-(2,6-difluorophenyl)-2,2-dioxido-2,1,3-benzothiadiazol-1(3-yl]butyl}cyclohexanamine hydrochloride]
2.63	CNCCCN1c2ccccc2N(c2ccccc2)S1(=O)=O [Example 5, 3-(2,2-dioxido-3-phenyl-2,1,3-benzothiadiazol-1(3H)-yl)-N-methylpropan-1-amine]
277	NCCCN1c2ccccc2N(c2c(F)cc(F)cc2F)S1(=O)=O [Example 70, 3-[2,2-Dioxido-3-(2,4,6-trifluorophenyl)-2,1,3-benzothiadiazol-1(3H)-yl]propan-1-amine hydrochloride]
1170	CC(C)NCCCCN1c2ccccc2N(c2c(F)cccc2F)S1(=O)=O [Example 123, 4-[3-(2,6-difluorophenyl)-2,2-dioxido-2,1,3-benzothiadiazol-1(3H)-yl]-N-isopropylbutan-1-amine hydrochloride]
2.81	CNCCCN1c2cccc(F)c2N(c2ccccc2F)S1(=O)=O [Example 73, 3-[4-fluoro-3-(2-fluorophenyl)-2,2-dioxido-2,1,3-benzothiadiazol-1(3H)-yl]-N-methylpropan-1-amine hydrochloride]
582	CCNCCCCN1c2ccccc2N(c2ccc(C)cc2F)S1(=O)=O [Example 107, N-ethyl-4-[3-(2-fluoro-4-methylphenyl)-2,2-dioxido-2,1,3-benzothiadiazol-1(3H)-yl]butan-1-amine]
534	CNCCCN1c2ccccc2N(c2cccc3ccccc23)S1(=O)=O [Example 13, N-methyl-3-[3-(1-naphthyl)-2,2-dioxido-2,1,3-benzothiadiazol-1(3H)-yl]propan-1-amine]
10.8	CNCCCN1c2ccccc2N(c2cccc(OC)c2)S1(=O)=O [Example 17, 3-[3-(3-methoxyphenyl)-2,2-dioxido-2,1,3-benzothiadiazol-1(3H)-yl]-N-methylpropan-1-amine]
12.6	CNCCCN1c2ccccc2N(c2ccccc2OC)S1(=O)=O [Example 9, 3-[3-(2-methoxyphenyl)-2,2-dioxido-2,1,3-benzothiadiazol-1(3H)-yl]-N-methylpropan-1-amine]
1200	CN(C)CCCCCCN1c2ccccc2N(c2ccccc2F)S1(=O)=O [Example 103, 6-[3-(2-fluorophenyl)-2,2-dioxido-2,1,3-benzothiadiazol-1(3H)-yl]-N,N-dimethylhexan-1-amine]
434	CCc1ccc(N2c3ccccc3N(CCCNC)S2(=O)=O)nc1 [Example 29, 3-[3-(5-ethylpyridin-2-yl)-2,2-dioxido-2,1,3-benzothiadiazol-1(3H)-yl]-N-methylpropan-1-amine hydrochloride]
21	O=S1(=O)N(CCCNC2CC2)c2ccccc2N1c1ccccc1F [Example 97, N-{3-[3-(2-fluorophenyl)-2,2-dioxido-2,1,3-benzothiadiazol-1(3H)-yl]propyl}cyclopropanamine]
85	CNCCCN1c2ccccc2N(c2cccnc2)S1(=O)=O [Example 34, 3-(2,2-dioxido-3-pyridin-3-yl-2,1,3-benzothiadiazol-1(3H)-yl)-N-methylpropan-1-amine hydrochloride]
57.1	CNCCCN1c2ccccc2N(c2ccc(C)cn2)S1(=O)=O [Example 26, N-methyl-3-[3-(5-methylpyridin-2-yl)-2,2-dioxido-2,1,3-benzothiadiazol-1(3H)-yl]propan-1-amine hydrochloride]
591	Cc1ccc(N2c3ccccc3N(CCCCN(C)C)S2(=O)=O)c(F)c1 [Example 106, 4-[3-(2-fluoro-4-methylphenyl)-2,2-dioxido-2,1,3-benzothiadiazol-1(3H)-yl]-N,N-dimethylbutan-1-amine]
0.3	CNCCCCN1c2ccccc2N(c2ccccc2)S1(=O)=O [Example 18, 4-(2,2-dioxido-3-phenyl-2,1,3-benzothiadiazol-1(3H)-yl)-N-methylbutan-1-amine]
40.2	CNCCCN1c2ccccc2N(c2ccc(F)cc2Cl)S1(=O)=O [Example 60, 3-[3-(2-Chloro-4-fluorophenyl)-2,2-dioxido-2,1,3-benzothiadiazol-1(3H)-yl]-N-methylpropan-1-amine hydrochloride]
4	CNCCCN1c2ccccc2N(c2ccc(C)cc2F)S1(=O)=O [Example 108, 3-[3-(2-fluoro-4-methylphenyl)-2,2-dioxido-2,1,3-benzothiadiazol-1(3H)-yl]-N-methylpropan-1-amine]
7.06	CNCCCN1c2ccccc2N(c2ccccc2C)S1(=O)=O [Example 16, N-methyl-3-[3-(2-methylphenyl)-2,2-dioxido-2,1,3-benzothiadiazol-1(3H)-yl]propan-1-amine]
20.6	CNCCCN1c2cc(F)ccc2N(c2ccccc2)S1(=O)=O [Example 35, 3-(6-fluoro-2,2-dioxido-3-phenyl-2,1,3-benzothiadiazol-1(3H)-yl)-N-methylpropan-1-amine]
13.1	NCCCN1c2ccccc2N(c2ccccc2F)S1(=O)=O [Example 56, 3-[3-(2-fluorophenyl)-2,2-dioxido-2,1,3-benzothiadiazol-1(3H)-yl]propan-1-amine]
21	O=S1(=O)N(CCCNC2CC2)c2ccccc2N1c1c(F)cccc1F [Example 84, N-{3-[3-(2,6-Difluorophenyl)-2,2-dioxido-2,1,3-benzothiadiazol-1(3H)-yl]propyl}cyclopropanamine hydrochloride]
267	O=S1(=O)N(CCCNC2CCNCC2)c2ccccc2N1c1ccccc1 [Example 132, N-[3-(2,2-dioxido-3-phenyl-2,1,3-benzothiadiazol-1(3H)-yl)propyl]piperidin-4-amine dihydrochloride]
11.3	CNCCCN1c2ccc(Cl)cc2N(c2ccccc2)S1(=O)=O [Example 36, 3-(5-Chloro-2,2-dioxido-3-phenyl-2,1,3-benzothiadiazol-1(3H)-yl)-N-methylpropan-1-amine]
4.84	CNCCCN1c2ccccc2N(c2cccc(F)c2F)S1(=O)=O [Example 46, 3-[3-(2,3-difluorophenyl)-2,2-dioxido-2,1,3-benzothiadiazol-1(3H)-yl]-N-methylpropan-1-amine hydrochloride]

same assay, conditions: read-out: NE uptake (Protocol B) IC50; MDCK-Net6 cells, 3H-NE 16 nM

Compound	pIC50
N-{3-[3-(2-fluorophenyl)-2,2-dioxido-2,1,3-benzothiadiazol-1(3H)-yl]butyl}cyclopropanamine [Example 99]	7.66
